Columns and labels:
Assay type in all cases: cell-based
[1] = biological target: T1, LTD4 evoked ileal contractions (Cavia porcellus, UniProt Q2NNR5); assay: LTD4 antagonism, cumulative concentration-response curves in guinea pig ileum and trachea (pA2); settings: 30 minute incubation with antagonist, Furchgott method
T1 construct: A section of terminal ileum was removed, the lumen cleaned, and the tissue divided into 2.5 cm. segments; from tissue; host or cells: terminal ileum of male Hartley guinea pigs
T1 sequence (Q2NNR5 1-340): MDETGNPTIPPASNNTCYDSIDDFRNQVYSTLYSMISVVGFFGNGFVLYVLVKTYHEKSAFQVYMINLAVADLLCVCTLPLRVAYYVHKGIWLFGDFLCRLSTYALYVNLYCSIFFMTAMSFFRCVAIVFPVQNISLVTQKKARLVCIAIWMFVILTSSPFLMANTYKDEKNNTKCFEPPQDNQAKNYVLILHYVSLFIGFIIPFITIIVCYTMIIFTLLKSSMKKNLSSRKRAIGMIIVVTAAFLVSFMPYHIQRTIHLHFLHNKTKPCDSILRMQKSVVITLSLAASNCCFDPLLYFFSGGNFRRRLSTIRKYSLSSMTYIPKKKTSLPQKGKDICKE
Procedure: For some of the drugs in this series a more detailed analysis of LTD4 antagonism was made. In these experiments, cumulative concentration-response curves were obtained to LTD4 in guinea pig ileum and trachea. This was followed by a 30 minute incubation with various concentrations of the experimental drug. The concentration response curve to LTD4 was then repeated in the presence of the antagonist. Only one concentration of antagonist was used on a single tissue. KB values were calculated by the method of Furchgott [Ann. N.Y. Acad. Sci., 139, 553 (1967)]using the following equation. [formula] Dose ratio refers to the concentration of agonist required to elicit 50 percent of the maximal response (ED50) in the presence of the antagonist divided by the ED50 in the absence of the antagonist. Calculations were performed with the aid of a computer and a digital plotter.

[2] = biological target: T1, LTD4 evoked ileal contractions; assay: Antagonism of LTD4-evoked contraction of isolated guinea pig ileum (single concentration); settings: pure LTD4, 5 minute exposure, read-out: Percent Inhibition of LTD4 evoked ileal contractions; for inhibition at 1 µM: 1 × 10^-6 M; for inhibition at 3 µM: 3 × 10^-6 M; for inhibition at 10 µM: 1 × 10^-5 M
Procedure: (§1) Male, Hartley guinea pigs weighing 200-450 grams were killed by decapitation. A section of terminal ileum was removed, the lumen cleaned, and the tissue divided into 2.5 cm. segments. The ilea were mounted in 10 ml. tissue baths containing Krebs-bicarbonate solution of the following composition in mmoles/liter: KCl, 4.6; CaCl2.2H2 O, 1.2; KH2 PO4, 1.2; MgSO4.7H2 O, 1.2; NaCl, 118.2; NaHCO3, 24.8 and dextrose, 10.0. The bath fluid was maintained at 37° C. and aerated with 95 percent oxygen and 5 percent CO2. In addition, the buffer contained 1×10^-6 M atropine to reduce ileal spontaneous activity. In studies with crude SRS-A, 1×10^-6M pyrilamine was used to mitigate the actions of histamine present along with the biologically active leukotrienes. Isometric measurements were made with a Grass FTO3C force-displacement transducer and recorded on a Grass polygraph as change in grams of force. A passive force of 0.5 g. was applied to the tissues. After an appropriate equilibration period, single submaximal control responses to either SRS-A or pure LTD4 were obtained. Following a 5 minute exposure of the ileum to an experimental drug, the control concentration of SRS-A or LTD4 was added to the tissue bath. The response of the ileum to SRS-A or LTD4 in the presence of the drug was compared to the response in the absence of the drug.
(§2) *Compounds marked with an asterisk were tested using crude SRSA as the
(§3) ileumcontracting agent; all other compounds were tested using pure

[3] = tested on: SRS-A evoked ileal contractions; assay: Antagonism of crude SRS-A-evoked contraction of isolated guinea pig ileum (single concentration); settings: Cavia porcellus, 5 min, 5 minute exposure, pyrilamine 1×10^-6 M, read-out: Percent Inhibition of SRS-A evoked ileal contractions; for inhibition at 3 µM: 3 × 10^-6 M
Procedure: as §1, §2, §3

Row | Kb [1] [nM] | inhibition at 1 µM [2] [%] | inhibition at 3 µM [2] [%] | inhibition at 10 µM [2] [%] | Compound | inhibition at 10 µM ([3]; 1 × 10^-5 M) [%] | inhibition at 3 µM [3] [%]
1 | 263 | – | 87 | – | CCCc1c(OCCCCCc2nnn[nH]2)ccc(C(C)=O)c1O [Example 22, 5-[5-(4-Acetyl-3-hydroxy-2-propylphenoxy)pentyl]-tetrazole] | – | –
2 | 398 | – | 81 | – | CCCc1c(OCCCCCC(=O)O)ccc(C(C)=O)c1O [Example 24, 6-(4-Acetyl-3-hydroxy-2-propylphenoxy)hexanoic acid] | – | –
3 | 1580 | – | – | – | CCCc1c(OCCCCC(=O)O)ccc(C(C)=O)c1O [Example 28, 5-(4-Acetyl-3-hydroxy-2-propylphenoxy)pentanoic acid] | – | 61
4 | 2000 | 51 | – | 94 | CCCc1c(OCCCCCCCCC(=O)O)ccc(C(C)=O)c1O [Example 31, 9-(4-Acetyl-3-hydroxy-2-propylphenoxy)nonanoic acid] | – | –
5 | 794 | – | 56 | 88 | CCCc1c(OCCCCCC(=O)O)ccc(C(=O)CC)c1O [Example 34, 6-(4-Propionyl-3-hydroxy-2-propylphenoxy)hexanoic acid] | – | –
6 | 1580 | – | 45 | 79 | CCCc1c(OC(C)CCCCC(=O)O)ccc(C(C)=O)c1O (stereo not drawn) [Example 40, 6-(4-Acetyl-3-hydroxy-2-propylphenoxy)heptanoic acid] | – | –
7 | 100 | 87 | – | – | CCCc1c(OCCCCSc2nn[nH]n2)ccc(C(C)=O)c1O [Example 57, 5-[4-(4-Acetyl-3-hydroxy-2-propylphenoxy)butanethio]-tetrazole] | – | –
8 | 1120 | 47 | – | – | CCCc1c(OCCSc2nn[nH]n2)ccc(C(C)=O)c1O [Example 58, 5-[2-(4-Acetyl-3-hydroxy-2-propylphenoxy)ethanethio]-tetrazole] | – | –
9 | 31.6 | 95 | – | – | CCCc1c(OCCCSc2nn[nH]n2)ccc(C(C)=O)c1O [Example 59, 5-[3-(4-Acetyl-3-hydroxy-2-propylphenoxy)propanethio]-tetrazole] | – | –
10 | 158 | 82 | – | 100 | CCCc1c(OCCCCCSc2nn[nH]n2)ccc(C(C)=O)c1O [Example 68, 5-[5-(4-Acetyl-3-hydroxy-2-propylphenoxy)pentanethio]-tetrazole] | – | –
11 | 501 | 50 | – | 100 | CCCc1c(OCCCCCCCCSc2nn[nH]n2)ccc(C(C)=O)c1O [Example 73, 5-[8-(4-Acetyl-3-hydroxy-2-propylphenoxy)octanethio]-tetrazole] | – | –

Continued, compound first:

Row | Compound | Kb [1] [nM] | inhibition at 1 µM [2] [%] | inhibition at 3 µM [2] [%] | inhibition at 10 µM [2] [%] | inhibition at 10 µM ([3]; 1 × 10^-5 M) [%] | inhibition at 3 µM [3] [%]
12 | CCCc1c(OCCCCCCc2nnn[nH]2)ccc(C(C)=O)c1O [Example 9, 5-[6-(4-Acetyl-3-hydroxy-2-propylphenoxy)hexyl]-tetrazole] | 79.4 | 87 | 100 | – | – | –
13 | CCCc1c(OCCCCCCCc2nnn[nH]2)ccc(C(C)=O)c1O [Example 10, 5-[7-(4-Acetyl-3-hydroxy-2-propylphenoxy)heptyl]-tetrazole] | 79.4 | 92 | 95 | – | – | –
14 | CCCc1c(OCCCCCCCCc2nnn[nH]2)ccc(C(C)=O)c1O [Example 11, 5-[8-(4-Acetyl-3-hydroxy-2-propylphenoxy)octyl]-tetrazole] | 316 | 89 | 100 | – | – | –
15 | CCCc1c(OCCCCCCCCCc2nnn[nH]2)ccc(C(C)=O)c1O [Example 12, 5-[9-(4-Acetyl-3-hydroxy-2-propylphenoxy)nonyl]-tetrazole] | 316 | 78 | 90 | – | – | –
16 | CCCc1c(OCCCCCCCCCCc2nnn[nH]2)ccc(C(C)=O)c1O [Example 13, 5-[10-(4-Acetyl-3-hydroxy-2-propylphenoxy)decyl]-tetrazole] | 316 | 76 | 93 | – | – | –
17 | CCCc1c(OC(CCCCC(=O)O)c2ccc(-c3ccccc3)cc2)ccc(C(C)=O)c1O (stereo not drawn) [Example 17, 6-(4-Acetyl-3-hydroxy-2-propylphenoxy)-6-(4-biphenyl)hexanoic acid] | – | – | – | – | 44 | –
18 | CC(=O)c1ccc(OC(CCCCC(=O)O)c2ccccc2)cc1O (stereo not drawn) [Example 20, 6-(4-Acetyl-3-hydroxyphenoxy)-6-phenyl-hexanoic acid] | – | – | – | – | – | 20
19 | CC(=O)c1ccc(OCCCCCC(=O)O)cc1O [Example 25, 6-(4-Acetyl-3-hydroxyphenoxy)hexanoic acid] | – | – | – | – | – | 11
